Assay results from US20240407991A1, “LOW PENETRATION SUNSCREEN COMPOSITIONS” (Johnson & Johnson Consumer Inc., priority 2023, published 2024).

Tested on: skin
Assay: Skin permeation of UV filters and active agents after topical application
Details: from Compositions 27 to 31, topically applied

NC(=O)c1cccnc1 [niacinamide]
skin permeation of cosmetically acceptable active agents: permeated the skin
